In patent US20120070392A1, “COMPOSITION FOR INHIBITING ERYTHEMA CAUSED BY ULTRAVIOLET RADIATION CONTAINING A DIPEPTIDE AS ACTIVE INGREDIENT” (priority 2009, published 2012):
Where two headings read alike, the source gives them in different places.

System: PGE2 production
Assay: Inhibition of UVB-induced PGE2 production in cultured human keratinocytes (PGE2 assay kit, calibrated with MTT absorbance)
Assay type: cell-based
Protocol: Human keratinocytes were seeded at a density of 1×10^5 cells/well to 6-well plates containing 2 mL of KGM(keratinocyte growth medium, Clonetics, San Diego, Calif., USA) per well and cultured overnight. Then, the medium was replaced with KBM(keratinocyte basal medium) supplemented with 0.1% BSA(bovine serum albumin) and the cells were cultured for an additional 24 hours. Subsequently, the cells were pre-treated for an additional 24 hours with 2 mL of the same medium containing 10 μg/ml of each of the dipeptides listed in Table 1. […] The pre-treated medium was transferred to new 24 well plates and 1 mL of DPBS(Dulbecco's phosphate buffered saline) was added to the cells in each well. During UV irradiation, the transferred medium was stored in a cell incubator. […] At this time, the control was covered with aluminum foil. After the removal of DPBS, the transferred medium was returned to each well. The cells were further cultured for 24 hours, after which 1 mL of the medium was transferred to microcentrifuge tubes. […] The supernatants were then removed and the formazan crystals were solubilized in 1 ml of DMSO(dimethylsulfoxide). One hundred μL of the solution was transferred to each well of 96-well plates and an optical density was determined at 540 nm using an ELISA(enzyme-linked immunosorbent assay) reader. […] The concentration of PGE2 was determined using a PGE2 Assay Kit(KGE004, R&D Systems, Inc., Minneapolis, Minn., USA) according to the manufacturer's instruction. […] After removal of the reaction, the wells were washed five times with 400 μL of wash buffer. To each well was added 200 μL of a substrate solution, followed by incubation for 20 30 min. The reaction was terminated with 50 μL of a stop solution per well before determining absorbance at 450 nm on an ELISA reader. The PGE2 concentration of each sample was calculated from the standard graph and calibrated with the absorbance obtained in the MTT assay to determine their inhibitory activity against PGE2 production.

[1] = 10 μg/ml dipeptide, 24 h pre-treatment, human keratinocytes, UVB 100 mJ/cm^2, medium assayed 24 h after irradiation, […], 10% or more regarded as effective
[2] = 10 μg/ml dipeptide, 24 h pre-treatment, human keratinocytes, UVB 100 mJ/cm^2, medium assayed 24 h after irradiation, 0% or lower expressed as zero, 10% or more regarded as effective

Molecule	% Inhibition against PGE2 Production [1] [%]	% Inhibition against PGE2 Production [%]	also measured
phenylalanine-leucine [FL]	29.2		
tryptophan-histidine [WH]	96.1		
isoleucine-tyrosine [IY]		68.6	
phenylalanine-tryptophan [FW]	92.9		
glutamic acid-histidine [EH]		75.4	
alanine-cysteine [AC]	70.8		
tryptophan-methionine [WM]		50.6	
serine-histidine [SH]		51.5	
cysteine-methionine [CM]		69.7	
alanine-alanine [AA]			% Inhibition against PGE2 Production [2]: 78.4%
glutamine-tyrosine [QY]		54.6	
leucine-histidine [LH]		81.7	
leucine-phenylalanine [LF]	90.2		
tryptophan-lysine [WK]	78.3		
isoleucine-methionine [IM]		57.1	
arginine-lysine [RK]	88.2		
glutamic acid-tyrosine [EY]		75.9	
methionine-tyrosine [MY]		91.7	
proline-isoleucine [PI]		87.2	
glutamic acid-arginine [ER]	72.8		
leucine-threonine [LT]	53.4		
tyrosine-aspartic acid [YD]		88.0	
alanine-glutamine [AQ]	69.0		

Molecule	% Inhibition against PGE2 Production [1] [%]	% Inhibition against PGE2 Production [%]	also measured
serine-threonine [ST]	79.5		
alanine-histidine [AH]		64.7	
valine-arginine [VR]	52.5		
proline-histidine [PH]		74.7	
glutamic acid-threonine [ET]	67.9		
aspartic acid-phenylalanine [DF]	83.4		
glutamic acid-alanine [EA]	55.3		
serine-arginine [SR]	52.9		
asparagine-cysteine [NC]		83.1	
alanine-proline [AP]		26.3	
arginine-tyrosine [RY]		67.3	
leucine-lysine [LK]	82.8		
serine-methionine [SM]		75.1	
arginine-asparagine [RN]	10.7		
leucine-alanine			% Inhibition against PGE2 Production [2]: 47.2%
asparagine-glutamic acid	14.5		
lysine-threonine [KT]	77.8		
valine-valine [VV]		89.9	
threonine-aspartic acid [TD]	77.6		
arginine-methionine [RM]		84.7	
aspartic acid-cysteine [DC]	77.6		
cysteine-serine [CS]	53.1		
glutamic acid-isoleucine [EI]	74.0		

Molecule	% Inhibition against PGE2 Production [1] [%]	% Inhibition against PGE2 Production [%]	also measured
tryptophan-asparagine [WN]	33.1		
glutamic acid-valine [EV]	86.4		
phenylalanine-alanine [FA]			% Inhibition against PGE2 Production [2]: 48.8%
alanine-lysine [AK]	90.3		
leucine-asparagine [LN]	78.8		
valine-asparagine [VN]		31.3	
valine-praline [VP]			% Inhibition against PGE2 Production [2]: 50.5%
proline-asparagine [PN]		32.7	
glutamine-lysine [QK]	25.9		
N=C(N)NCCC[C@H](N)C(=O)O.NCC(=O)O [RG, arginine-glycine]		82.8	
asparagine-valine [NV]		80.4	
valine-lysine [VK]		42.0	
glutamine-tryptophan [QW]	42.8		
lysine-valine [KV]	71.6		
proline-glutamine [PQ]		78.1	
asparagine-histidine [NH]		65.8	
lysine-tryptophan [KW]	76.9		
NCC(=O)O.N[C@@H](Cc1c[nH]c2ccccc12)C(=O)O [WG, tryptophan-glycine]			% Inhibition against PGE2 Production [2]: 91.3%
isoleucine-alanine [IA]			% Inhibition against PGE2 Production [2]: 38.6%
asparagine-tyrosine [NY]		58.1	
proline-aspartic acid [PD]		84.3	
tryptophan-tryptophan [WW]	34.8		
isoleucine-histidine [IH]		27.1	

Molecule	% Inhibition against PGE2 Production [1] [%]	% Inhibition against PGE2 Production [%]	also measured
NCC(=O)O.N[C@@H](CC(=O)O)C(=O)O [DG, aspartic acid-glycine]		79.7	
NCC(=O)O.N[C@@H](CCC(=O)O)C(=O)O [EG, glutamic acid-glycine]		90.9	
threonine-methionine [TM]		67.9	
tryptophan-proline [WP]		68.3	
phenylalanine-asparagine [FN]	81.4		
glutamine-threonine [QT]	25.0		
isoleucine-glutamine [IQ]	72.0		
cysteine-glutamine [CQ]	93.9		
proline-threonine [PT]		21.7	
histidine-proline [HP]		26.3	
glutamic acid-leucine [EL]	56.2		
lysine-methionine [KM]		84.0	
asparagine-arginine [NR]	72.8		
arginine-tryptophan [RW]	34.9		
aspartic acid-tryptophan [DW]	67.3		
serine-valine [SV]		31.2	
glutamine-arginine [QR]	33.6		
glutamine-serine [QS]	28.2		
aspartic acid-alanine [DA]	94.1		
isoleucine-aspartic acid	64.6		
alanine-valine [AV]		44.8	
threonine-phenylalanine [TF]	77.3		
proline-lysine [PK]		96.3	

Molecule	% Inhibition against PGE2 Production [1] [%]	% Inhibition against PGE2 Production [%]	also measured
threonine-glutamine [TQ]	51.2		
serine-proline [SP]		94.7	
asparagine-serine [NS]		31.9	
leucine-glutamic acid	92.8		
phenylalanine-isoleucine [FI]	45.8		
serine-leucine [SL]	81.6		
tyrosine-tyrosine [YY]		83.5	
glutamine-valine [QV]	59.7		
tyrosine-arginine		83.7	
histidine-leucine [HL]		36.3	
aspartic acid-valine [DV]	30.7		
histidine-tryptophan [HW]	21.6		
cysteine-tryptophan [CW]	71.0		
leucine-valine [LV]	79.9		
valine-leucine [VL]	47.0		
aspartic acid-serine [DS]	84.0		
aspartic acid-lysine [DK]	76.6		
alanine-asparagine		58.8	
phenylalanine-arginine [FR]	92.9		
